According to patent US20250230149A1, “MGLUR5 MODULATING COMPOUNDS, COMPOSITIONS, AND METHODS OF USE” (Allyx Therapeutics, Inc., priority 2022, published 2025):
Values after ≈ are worked out from the molar mass of the structure shown. “Also recorded” adds a separate entry of the source. Where two headings read alike, the source gives them in different places.

Assays:
[1] = Approximate solubility (visual) in solvents; assay type: physicochemical; settings: thermodynamic from solid, read-out: Approx. solubility
Method: The polymorph study protocol involved the use of a selection of solvents in which the solubility of Compound 1 was initially evaluated. Four typologies of experiments were then set up: temperature cycling, evaporative, long-term slurries and vapor diffusion. The number of solvents, solvent volumes and amount of material to be used in each experiment was based on solubility values and the kind of experiment.
Approximate solubility (visual) of Compound 1 was assessed in a list of solvents selected based on class diversity including solvent/water mixtures (Table 5). Compound 1 (5.0±0.2 mg) was weighted in vials and known aliquots of solvent were progressively added at 20° C. until a clear solution was visually observed; magnetic stirring was applied. The final solutions were stirred at room temperature overnight to evaluate any re-crystallization phenomena.

[2] = Intravenous and oral cross-over pharmacokinetic study; assay type: in vivo, male Sprague Dawley rats; settings: male rats, IV 1 mg/kg
Method: This study assessed the PK of Compound 1 AH Form A in male Sprague Dawley rats (3/group) following single IV (intravenous) administration at 1 mg/kg as a solution in 2.5% N-Methyl-2-pyrrolidone (NMP)+1% Solutol HS15 in water or a PO (oral) administration of 3 formulations at 5 and 50 mg/kg, administered to the same animals in a cross over with 7 days recovery.
Serial plasma samples were collected at intervals to 24 h post dose and the level of Compound 1 determined in each plasma sample by LC-MS/MS.

[3] = target: pregnane X receptor (PXR) (Rattus norvegicus, UniProt Q9R1A7); experiment: PXR receptor activation, rat; assay type: in vitro ADME; settings: at 30 μM
Sequence of pregnane X receptor (PXR) (Q9R1A7 whole entry): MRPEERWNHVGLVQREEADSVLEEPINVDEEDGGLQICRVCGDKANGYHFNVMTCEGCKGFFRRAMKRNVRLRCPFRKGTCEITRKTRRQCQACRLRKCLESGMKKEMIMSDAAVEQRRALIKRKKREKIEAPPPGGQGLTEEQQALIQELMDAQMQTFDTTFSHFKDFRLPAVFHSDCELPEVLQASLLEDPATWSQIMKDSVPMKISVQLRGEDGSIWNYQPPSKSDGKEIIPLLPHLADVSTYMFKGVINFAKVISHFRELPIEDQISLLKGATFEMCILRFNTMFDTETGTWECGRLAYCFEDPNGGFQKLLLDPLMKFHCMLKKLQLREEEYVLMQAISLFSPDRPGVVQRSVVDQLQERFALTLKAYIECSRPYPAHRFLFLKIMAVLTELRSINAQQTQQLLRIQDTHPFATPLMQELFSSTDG
Description: (§1) The objective of this study was to determine the human and rat pregnane X receptor (PXR) and human and rat aryl hydrocarbon receptor (AhR) receptor activation potential of Compound 1 Form A. The activation of PXR is a marker for induction of CYP3A4/5 and […] and the activation of AhR is a marker for induction of CYP1A.

[4] = target: aryl hydrocarbon receptor (AhR) (Rattus norvegicus, UniProt P41738); experiment: AhR receptor activation, rat; assay type: in vitro ADME; settings: at 30 μM
Sequence of aryl hydrocarbon receptor (AhR) (P41738 10-853): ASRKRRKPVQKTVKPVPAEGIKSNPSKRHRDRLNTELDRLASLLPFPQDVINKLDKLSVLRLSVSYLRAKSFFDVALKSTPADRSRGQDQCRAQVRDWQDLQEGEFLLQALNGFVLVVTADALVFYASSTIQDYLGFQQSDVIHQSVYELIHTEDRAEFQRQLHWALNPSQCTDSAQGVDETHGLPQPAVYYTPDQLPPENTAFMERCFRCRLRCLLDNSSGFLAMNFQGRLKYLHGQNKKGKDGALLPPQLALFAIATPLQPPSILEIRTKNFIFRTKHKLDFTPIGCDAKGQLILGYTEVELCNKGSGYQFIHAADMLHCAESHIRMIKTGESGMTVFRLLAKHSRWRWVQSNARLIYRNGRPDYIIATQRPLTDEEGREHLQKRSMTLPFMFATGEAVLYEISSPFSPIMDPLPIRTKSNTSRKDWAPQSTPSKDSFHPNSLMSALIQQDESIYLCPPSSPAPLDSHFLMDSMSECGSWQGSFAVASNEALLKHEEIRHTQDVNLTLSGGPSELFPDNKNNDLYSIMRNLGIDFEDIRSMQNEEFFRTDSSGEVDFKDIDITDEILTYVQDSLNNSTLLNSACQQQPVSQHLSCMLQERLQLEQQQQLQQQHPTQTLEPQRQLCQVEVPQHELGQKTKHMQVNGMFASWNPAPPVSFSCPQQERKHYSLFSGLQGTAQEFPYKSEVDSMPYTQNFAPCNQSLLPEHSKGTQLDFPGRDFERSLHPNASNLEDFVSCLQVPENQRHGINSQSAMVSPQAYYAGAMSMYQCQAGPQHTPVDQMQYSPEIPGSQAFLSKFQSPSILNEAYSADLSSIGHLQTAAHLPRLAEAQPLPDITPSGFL
Description: as §1

mGluR5 = mGluR5 (Homo sapiens, UniProt P41594); experiment: [3H]-MPEPy displacement from mGluR5; assay type: binding; settings: read-out: inhibitor constant (Ki) for [3H]-MPEPy displacement from mGluR5
Sequence of mGluR5 (P41594 21-1212): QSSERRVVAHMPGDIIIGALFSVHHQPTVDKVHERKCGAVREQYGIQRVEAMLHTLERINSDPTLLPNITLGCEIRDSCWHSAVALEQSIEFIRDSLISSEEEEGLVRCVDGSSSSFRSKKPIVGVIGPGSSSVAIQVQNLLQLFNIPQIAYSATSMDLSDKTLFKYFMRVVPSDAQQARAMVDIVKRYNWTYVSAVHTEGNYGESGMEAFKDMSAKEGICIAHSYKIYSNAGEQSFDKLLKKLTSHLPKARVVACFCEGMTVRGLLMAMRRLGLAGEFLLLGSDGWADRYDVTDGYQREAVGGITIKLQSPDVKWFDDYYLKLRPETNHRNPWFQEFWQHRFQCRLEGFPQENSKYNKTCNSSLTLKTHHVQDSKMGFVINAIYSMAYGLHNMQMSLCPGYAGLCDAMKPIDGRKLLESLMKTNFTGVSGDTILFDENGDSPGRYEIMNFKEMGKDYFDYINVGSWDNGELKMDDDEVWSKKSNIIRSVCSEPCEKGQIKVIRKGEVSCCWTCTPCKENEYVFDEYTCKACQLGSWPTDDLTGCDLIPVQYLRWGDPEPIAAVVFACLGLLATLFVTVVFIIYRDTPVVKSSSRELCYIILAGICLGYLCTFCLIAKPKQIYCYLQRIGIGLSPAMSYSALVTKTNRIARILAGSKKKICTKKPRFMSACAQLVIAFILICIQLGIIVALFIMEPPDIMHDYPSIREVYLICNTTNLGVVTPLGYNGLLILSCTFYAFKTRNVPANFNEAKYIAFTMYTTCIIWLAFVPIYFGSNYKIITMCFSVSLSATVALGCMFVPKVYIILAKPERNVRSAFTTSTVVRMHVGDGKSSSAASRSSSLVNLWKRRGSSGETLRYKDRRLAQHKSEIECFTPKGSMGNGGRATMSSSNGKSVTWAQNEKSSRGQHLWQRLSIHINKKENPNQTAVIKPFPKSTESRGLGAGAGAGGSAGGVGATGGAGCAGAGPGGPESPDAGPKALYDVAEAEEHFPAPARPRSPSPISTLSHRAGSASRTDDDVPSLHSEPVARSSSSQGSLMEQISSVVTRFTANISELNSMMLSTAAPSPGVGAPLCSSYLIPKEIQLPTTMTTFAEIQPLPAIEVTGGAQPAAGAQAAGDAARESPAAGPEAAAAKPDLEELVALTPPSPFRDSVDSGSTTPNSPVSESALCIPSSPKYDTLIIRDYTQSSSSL

APP/PS1 mice = experiment: SV2A PET imaging of synaptic density in APP/PS1 mouse model; assay type: in vivo; settings: 12 months of age, one-month treatment, 3.75 mg/kg q12 oral
Method: The objective of this study was to assess synaptic density of control and APP/PS1 mice before and after treatment with Compound 1, and to assess the reversibility of any observed effects following a drug washout period.
Vehicle (95% polyethylene glycol (PEG) 400/5% solutol) or Compound 1 at 7.5 mg/kg/day (3.75 mg/kg q12) was given to control and APP/PS1 mice for at least 28 days by oral administration. A subset of mice stopped treatment after four weeks, then underwent a four-week washout period.
To further maximize translational relevance, in other studies mice were aged to the point that synapse loss was detectable using SV2A PET. At 12 months of age, synapse density, as measured by hippocampal/brainstem [^18F]SDM-8 SUVR-1, is reduced in APP/PS1 mice relative to wild-type.

C57/BI6J mice = experiment: Prevention of positive allosteric modulator (PAM) induced seizures; assay type: in vivo; settings: oral gavage 2 hours before PAM 20 mg/kg i.p.
Method: The objective of this study was to assess the enantiomeric selectivity of Compound 1 for the mGluR5 receptor as a function of seizure prevention. It had been previously reported that PAMs of mGluR5 are capable of inducing seizures in C57/BI6J mice.
Compound 1 (0.12, 0.24, 0.47, 0.94, 1.88, 3.75 or 7.5 mg/kg), enantiomer of Compound 1 (7.5, 15 or 30 mg/kg) or vehicle were administered by oral gavage to C57/BI6J mice of 3-11 months of age. After 2 hours, a PAM compound was administered at 20 mg/kg via intraperitoneal injection. Animals were then placed in a 10 inch diameter acrylic cage for observation and video recording for 2 h post dose and seizures were scored using the Racine seizure scoring criteria and normalized to a scale of 0-1.

double knock-in mice = experiment: Tau accumulation in double knock-in mice; assay type: in vivo
Description: Compound 1 (e.g., Form A) prevented Alzheimer's triggered aberrant synaptic signaling while preserving physiological Glu activation. Studies have been conducted to show oral Compound 1 effectively occupied brain mGluR5 sites visualized by [^18F]FPEB PET at doses 250-fold below adverse effect levels in rodent and non-human primate. […] Production of the microglial mediator, C1q, was not altered by Compound 1, but Alzheimer-gene-dependent C1q localization to synapses and synaptic engulfment were prevented. Thus, selective modulation of mGluR5 reversed neuronal gene expression changes to protect synapses from damage by microglial mediators.

What does the source list for `O=C1N[C@H](c2cncc(C#Cc3ccccc3)c2)[C@@H](c2ccccc2Cl)O1` [Compound 1, (4R,5R)-5-(2-chlorophenyl)-4-(5-(phenylethynyl)pyridin-3-yl)oxazolidin-2-one]?
solubility ([1]; aqueous with cosolvent or surfactant or cyclodextrin, 2-propanol/water 50:50, 20° C.): ~5 mg/mL (≈ 13.3 mM); solubility ([1]; aqueous with cosolvent or surfactant or cyclodextrin, acetone/water 50:50, 20° C.): ~5 mg/mL (≈ 13.3 mM); solubility ([1]; organic solvent or mixture, 2-butanol, 20° C.): 50 to 100 mg/mL (≈ 133 to 267 mM); solubility ([1]; organic solvent or mixture, 2-methyltetrahydrofuran (MeTHF), 20° C.): > 100 mg/mL; solubility ([1]; organic solvent or mixture, 2-propanol/water 80:20, 20° C.): 50 to 100 mg/mL (≈ 133 to 267 mM); solubility ([1]; organic solvent or mixture, 2-propanol/water 90:10, 20° C.): 30 to 50 mg/mL (≈ 80 to 133 mM); solubility ([1]; organic solvent or mixture, acetone, 20° C.): > 100 mg/mL; solubility ([1]; organic solvent or mixture, acetone/water 90:10, 20° C.): > 100 mg/mL; solubility ([1]; organic solvent or mixture, acetonitrile, 20° C.): 50 to 100 mg/mL (≈ 133 to 267 mM); solubility ([1]; organic solvent or mixture, benzonitrile, 20° C.): > 100 mg/mL; solubility ([1]; organic solvent or mixture, dichloromethane, 20° C.): > 100 mg/mL; solubility ([1]; organic solvent or mixture, ethanol, 20° C.): > 100 mg/mL; solubility ([1]; organic solvent or mixture, ethyl acetate, 20° C.): > 100 mg/mL; solubility ([1]; organic solvent or mixture, heptane, 20° C.): < 2 mg/mL; solubility ([1]; organic solvent or mixture, i-propyl acetate, 20° C.): 50 to 100 mg/mL (≈ 133 to 267 mM); solubility ([1]; organic solvent or mixture, isopropyl alcohol (IPA), 20° C.): 25 to 30 mg/mL (≈ 66.7 to 80 mM); solubility ([1]; organic solvent or mixture, methyl ethyl ketone (MEK), 20° C.): > 100 mg/mL; solubility ([1]; organic solvent or mixture, methyl isobutyl ketone (MIK), 20° C.): > 100 mg/mL; solubility ([1]; organic solvent or mixture, methyl tert-butyl ether (MTBE), 20° C.): 17 to 25 mg/mL (≈ 45.4 to 66.7 mM); solubility ([1]; organic solvent or mixture, t-Butyl acetate, 20° C.): 25 to 30 mg/mL (≈ 66.7 to 80 mM); solubility ([1]; organic solvent or mixture, tetrahydrofuran (THF), 20° C.): > 100 mg/mL; solubility ([1]; organic solvent or mixture, toluene, 20° C.): 25 to 30 mg/mL (≈ 66.7 to 80 mM); solubility ([1]; water, 20° C.): < 2 mg/mL; clearance ([2]; Sprague Dawley, rat, plasma): 5.98 mL/min/kg; half-life ([2]; Sprague Dawley, rat, plasma): 4.49 h; Cmax ([2]; Sprague Dawley, rat, plasma, solution in 2.5% NMP + 1% Solutol HS15 in water): 595 ng/mL; Vd ([2]; Sprague Dawley, rat, plasma, read-out: Vdss): 2.23 L/kg; AUCinf (in AUClast column, footnote 1) [2]: 2910^1 ng · h/mL; mean activation of PXR [3]: 4.70 fold; AhR activation, % of the positive control [4]: 0.946%; mean maximum fold activation of AhR [4]: 1.42 fold; Ki (mGluR5): 0.6 nM; synaptic density, SV2A PET (hippocampal/brainstem [18F]SDM-8 SUVR-1) (APP/PS1 mice): fully recovered; also recorded: highly significant increase; seizure prevention activity (C57/BI6J mice; Compound 1 0.12-7.5 mg/kg, enantiomer 7.5-30 mg/kg): dose dependent prevention; IC50 of inhibition of PAM-induced seizures (C57/BI6J mice; Racine score): 1.09 mg/kg; Tau accumulation (double knock-in mice): reduced
